From patent US20020094958A1, “Materials for lysosome modulation and methods of use thereof” (priority 2000, published 2002)
Values belong to the compound of their own block, whether it stands above or below them. Where a SMILES comes first, the peptide text is derived from it. The star is where a group is joined. Cbz = O=C(OCc1ccccc1)*; CHN2 = [N-]=[N+]=C*

Key:
[1] = tested on: hippocampal slice cultures; test: Synaptic marker decline and recovery after chloroquine-induced lysosomal dysfunction in hippocampal slice cultures; assay type: cell-based, rat; details: for recovery of the postsynaptic marker GluR1 concentration / recovery of the presynaptic marker synaptophysin concentration: 2-day recovery after 6-day 60 μM chloroquine, vs chloroquine baseline
Protocol: The method comprises treatment of a neural tissue culture with a lysosomal disruptor (e.g., chloroquine) to initiate lysosome dysfunction in the culture. The culture is treated with a lysosomal disruptor in order to reproduce features characteristic of neurodegeneration, especially those found in Alzheimer's disease (FIG. 7). Preferably, chloroquine is utilized for the lysosomal disruptor due to its broad targeting of pH-dependent enzymes by disrupting the proton gradient of lysosomes. Chloroquine is added to the culture for an extended period of time (the addition time period) to cause gradual cellular changes.
After a predetermined time, the lysosomal disrupter is removed from the culture and synaptic marker concentrations are determined. Subsequently, small amounts of compounds are administered to the neural tissue to modulate lysosomal enzymes. After such treatment, concentrations of synaptic markers in the neural tissue are determined, and the treated and untreated synaptic marker concentrations are compared to determine synaptic recovery (see FIG. 2). Thus by monitoring decline (during disruptor addition) and subsequent increase (during compound addition) of synaptic markers, synaptic degeneration and recovery can be assessed, and the efficacy of the added compounds can be measured.
In order to induce lysosomal dysfunction, 60 μM chloroquine in media was added separately to groups of hippocampal slice cultures. The chloroquine-containing media was changed every two days. Over a 6-day period, separate groups of slices were harvested and synaptic pathology assessed by determining the content of the postsynaptic marker GluR1. […] In a first set of slices the chloroquine was removed from the feeding media after the 6-day addition period and synaptic recovery was assessed after one and two days by measuring GluR1 concentration. […] Although the rate of decline slowed between the first and second day, there was no evidence of synaptic recovery.
In a second set of slices, synaptic recovery was assessed after removal of chloroquine-containing media and a single addition of 10 μM of the lysosomal modulator benzyloxycarbonyl-Phe-Ala-diazomethyiketone (PADK) in media was applied to cultures. As shown by the closed triangles, addition of PADK functioned to increase the GluR1 marker concentration, indicating recovery from synaptic degeneration.
Lysosomal dysfunction was induced by adding 60 μM chloroquine in media to separate groups of hippocampal slice cultures. The chloroquine-containing media was changed every two days for a total of six days. After the 6-day addition period, the chloroquine was removed from the feeding media of individual sets of cultures and presynaptic marker (synaptophysin) and postsynaptic marker (GluR1) concentrations assessed to provide a baseline indicated by the horizontal dotted lines in FIGS. 3A and 3B. 10 μM PADK, 10 μM Ampakine (trademark of Cortex Pharmaceuticals; Irvine, Calif.), and 10 μM memantine (derivatives of which are a trademark of Merz Pharmaceuticals; Germany) were added separately to separate chloroquine-treated cultures to assess their effects on synaptic recovery. After a 2-day recovery period, the separate groups of cultures were harvested and concentrations of presynaptic (synaptophysin) and postsynaptic (GluR1) markers were measured and compared to the reduced levels resulting from the 6-day chloroquine treatment. An increase from the baseline indicates recovery while no difference or further reduction of marker concentrations from the baseline indicates no recovery of synaptic maintenance.

[2] = tested on: lysosomal enzyme levels; test: Upmodulation of lysosomal enzyme levels in hippocampal slice cultures (Table 1); assay type: cell-based, rat; details: compounds individually applied to hippocampal slice cultures
Text: Another aspect of the invention is the provision of compounds to increase cellular content (upmodulation) of lysosomal enzymes. As used herein “upmodulation” is an increase in the cellular content of lysosomal enzymes or in the content of lysosomes. Some inventive lysosomal modulating compounds are comprised by the previously described formulas (1) M-aan—CH═N═N, (2) M-aan—CH2—O—CO—[2-R-4-R-6-R-Phenyl], (3) M-aan—NH—CH2—CH N—NH—CO—NH2 and (4) M—N═N—CO—CH2-aan—O—R. Examples of compounds include, formula (1) benzyloxycarbonyl-Phe-Ala-diazomethylketone and benzyloxycarbonyl-Phe-Phe-diazomethylketone; formula (2) is benzyloxycarbonyl-Phe-Lys-2,4,6-trimethylbenzoyloxymethylketone; formula (3) is H-Gly-Phe-Gly-aldehyde semicarbazone; formula (4) is diazoacetyl-DL-2-aminohexanoic acid-methyl ester. When these compounds were individually applied to hippocampal slice cultures, each facilitated the upmodulation of lysosomal enzyme levels (Table 1). Each of the compounds is available from BACHEM Biosciences Inc. of King of Prussia, Pa. Presently, PADK is the preferred compound for modulation of lysosomal activity.
Lysosomal modulating compounds were identified that unexpectedly stimulate lysosomal activity and/or cellular feedback processes for the upregulation of lysosomal hydrolase levels. […] Thus the inventive lysosomal modulation promotes efficient tau turnover/processing and thereby reduces the ability of abnormally phosphorylated tau to drive non-pathogenic species off of microtubules and into the aggregated state. The non-pathogenic tau molecules would then be more readily available to stabilize microtubules and their transport mechanisms that are important for neuronal functions.

[3] = tested on: hippocampal slice cultures; test: Horse-radish peroxidase dendritic transport scoring in hippocampal slice cultures; assay type: cell-based, rat
Protocol: Lysosomal dysfunction was produced in hippocampal slice cultures with chloroquine as in Example 2. Separate groups of slices were assessed for transport capability by applying horse-radish peroxidase to neurons and scoring its transport from cell bodies along dendrites by two independent observers. […] By monitoring intracellular tau deposition, microtubule stabilization marker (acetylated tubulin), and transport capability, it appears that changes in all of these related parameters contribute to the link between lysosomal modulation and synapse maintenance (FIG. 7).

[4] = tested on: hippocampal slice cultures; test: Immunoblot of tau species and lysosomal enzymes after chloroquine-mediated lysosomal dysfunction in hippocampal slice cultures; assay type: cell-based, rat
Text: Lysosomal dysfunction was produced in hippocampal slice cultures with chloroquine as in Example 2.

[5] = tested on: cathepsin D; test: Cathepsin D in brain tissue of rats given PADK in drinking water; assay type: in vivo, rat; details: adult male rats, approximately 3 to 4 mg/kg/day, seven days, vs untreated group
Protocol: A further aspect of the invention is a method of modulating lysosomal function in a subject comprising administering to the subject a therapeutically effective amount of at least one inventive lysosome modulating compound or a physiologically acceptable salt thereof. As discussed in more detail later, the lysosome modulating compound benzyloxycarbonyl-Phe-Ala-diazomethylketone (PADK) was added to the drinking water of a first group of 5 adult male rats in an amount corresponding to 3 to 4 mg PADK/kg rat weight/day. […] After seven days, hippocampal and neocortical tissue was isolated from the first and the second groups. The concentration of the lysosomal enzyme cathepsin D in tissue samples was assessed by immunoblot for each of the groups.
The lysosomal modulator benzyloxycarbonyl-Phe-Ala-diazomethylketone (PADK) was added to the drinking water of a first group of 5 adult male rats in an amount corresponding to approximately 3 to 4 mg PADK/ kg rat weight/day. […] After seven days, hippocampal and neocortical tissue was isolated from the first and the second groups. The concentration of cathepsin D in tissue samples was assessed by immunoblot for each of the groups.

[6] = tested on: hippocampal slice cultures; test: Continuous PADK application to hippocampal slice cultures over a 20-day period; assay type: cell-based, rat
Text: One aspect of the invention is the use of compounds to modulate lysosomal activity. The modulation of lysosomal activity may be, but is not necessarily, accompanied by an increase in cellular content of lysosomes or lysosomal enzymes. Some inventive lysosomal modulating compounds comprise the previously described formulas (1) M-aan—CH═N═N, (2) M-aan—CH2—O—CO—[2-R-4-R-6-R-Phenyl], (3) M-aan—NH—CH2—CH═N—NH—CO—NH2, (4) M-N ═N—CO—CH2—aan—O—R, and combinations thereof. An example of formula (1) is benzyloxycarbonyl-Phe-Ala-diazomethylketone (PADK). As discussed in more detail later, PADK was applied to hippocampal slice cultures at a continuous concentration of 10 μM over a 20-day period. Fresh media and PADK compound were applied every two days.
Benzyloxycarbonyl-Phe-Ala-diazomethylketone (PADK) was applied to hippocampal slice cultures at a continuous concentration of 10 μM over a 20-day period. Fresh media and PADK compound were applied every two days. […] Thus the inventive lysosomal modulation promotes efficient tau turnover/processing and thereby reduces the ability of abnormally phosphorylated tau to drive non-pathogenic species off of microtubules and into the aggregated state. The non-pathogenic tau molecules would then be more readily available to stabilize microtubules and their transport mechanisms that are important for neuronal functions. Such an inverse correlation between the two forms of tau was also evident in the hippocampus of aged mice, where the change vs. age relationships determined for hyperphosphorylated and non-phosphorylated tau were of equal but opposite slopes. Thus, lysosomal modulators may intervene in the progression of certain types of neuronal atrophy, as well as in the cellular processes that contribute to synaptic loss and the severity of Alzheimer-type dementia.

[7] = 6 days chloroquine then 2 days media alone, vs untreated control
[8] = 10 μM continuous, 20-day period
[9] = PADK for two days following 6-day chloroquine period
[10] = 2 days PADK following 6-day chloroquine treatment

SMILES: CC12CC3CC(C)(C1)CC(N)(C3)C2 [memantine, reference compound]
- recovery of the postsynaptic marker GluR1 concentration ([1]; Example 3, 10 μM): No statistically significant recovery
- recovery of the presynaptic marker synaptophysin concentration ([1]; Example 3, 10 μM): No statistically significant recovery
- GluR1 level change vs baseline ([1]; Example 3, 10 μM, 2-day recovery period, FIG. 3A): small decrease

- upmodulated cathepsin types [2]: B, D
SMILES: NCC(=O)NC(Cc1ccccc1)C(=O)NCC=NNC(N)=O (stereo not drawn) [(4), H-Gly-Phe-Gly-aldehyde semicarbazone]

- cathepsin D (CD) [4, 7]: small compensatory increase
- potentially pathogenic tau species of 55-69 kDa [4, 7]: enhanced levels
SMILES: CCN(CC)CCCC(C)Nc1ccnc2cc(Cl)ccc12 (centres unmarked) [chloroquine, reference compound]
- transport capacity ([3]; 6-day chloroquine followed by 2 days media alone, vs untreated slices): adversely affected
- GluR1 concentration during disruptor exposure ([1]; 60 μM, 6-day exposure period): decreased

- upmodulated cathepsin types [2]: B, D
SMILES: [N-]=[N+]=CC(=O)[C@H](Cc1ccccc1)NC(=O)[C@H](Cc1ccccc1)NC(=O)OCc1ccccc1 [(2), benzyloxycarbonyl-Phe-Phe-diazomethylketone] (Cbz-Phe-Phe-CHN2)

- concentration of the lysosomal enzyme cathepsin D ([6]; 10 μM, after 5 days of treatment): not significantly altered
- restoration of transport capability [3, 9]: significant restoration
- transport failure [3, 9]: did not exhibit transport failure
- upmodulated cathepsin types [2]: B, D, S
- 55-69 kDa tau species [4, 10]: reduction
- cathepsin D [4, 10]: robust upmodulation
- levels of lysosomal enzymes cathepsin B (CB), cathepsin D (CD), cathepsin S (CS) ([4]; FIG. 5 immunoblots): enhanced levels
- control levels of tau isoforms ([4]; PADK addition alone (no chloroquine)): without altering
SMILES: C[C@H](NC(=O)[C@H](Cc1ccccc1)NC(=O)OCc1ccccc1)C(=O)C=[N+]=[N-] [(1), benzyloxycarbonyl-Phe-Ala-diazomethylketone]
- lysosomal enzyme (cathepsin D) concentration in hippocampal and neocortical tissue [5]: significant increases
- cathepsin D levels [6, 8]: stably enhanced
- non-pathogenic tau isoforms [6, 8]: gradual increase
- pathogenic hyperphosphorylated tau species concentration [6, 8]: gradually reduced
- synaptic marker (GluR1) [6, 8]: without any reduction
- recovery from synaptic degeneration (GluR1) ([1]; Example 2, single 10 μM addition after 6-day chloroquine, one day): significant recovery
- recovery of GluR1 level ([1]; Example 2, single 10 μM addition after 6-day chloroquine, two days): 71%
- recovery of the postsynaptic marker GluR1 concentration ([1]; Example 3, 10 μM): 70%
- recovery of the presynaptic marker synaptophysin concentration ([1]; Example 3, 10 μM): ~35%
